Reference: patent publication US12065442B2, “Tropomyosin receptor kinase (TRK) degradation compounds and methods of use” (Cullgen (Shanghai), Inc., priority 2018, dated 2024)

Test system: KM12 cells
Assay: Cell viability assay (CellTiter-Glo) in KM12 cells
Assay type: cell-based
Conditions: Homo sapiens, 72 h; Table 3; KM12 cell viability, CellTiter-Glo, 3 days; read-out: IC50

Row | Structure (SMILES) | IC50 [nM]
1 | O=C1CCC(N2C(=O)c3ccc(NCCC(=O)N4CCN(c5ccc(C(=O)Nc6n[nH]c7ccc(Cc8cc(F)cc(F)c8)cc67)c(NC6CCOCC6)c5)CC4)cc3C2=O)C(=O)N1 (stereo not shown) [TR-145, N-(5-(3,5-Difluorobenzyl)-1H-indazol-3-yl)-4-(4-(3-((2-(2,6-dioxopiperidin-3-yl)-1,3-dioxoisoindolin-5-yl)amino)propanoyl)piperazin-1-yl)-2-((tetrahydro-2H-pyran-4-yl)amino)benzamide] | 3.1
2 | O=C1CCC(N2C(=O)c3ccc(NCCOCCOCCOCCC(=O)N4CCN(c5ccc(C(=O)Nc6n[nH]c7ccc(Cc8cc(F)cc(F)c8)cc67)c(NC6CCOCC6)c5)CC4)cc3C2=O)C(=O)N1 (stereo not shown) [TR-146, N-(5-(3,5-Difluorobenzyl)-1H-indazol-3-yl)-4-(4-(3-(2-(2-(2-((2-(2,6-dioxopiperidin-3-yl)-1,3-dioxoisoindolin-5-yl)amino)ethoxy)ethoxy)ethoxy)propanoyl)piperazin-1-yl)-2-((tetrahydro-2H-pyran-4-yl)amino)benzamide] | 4.2
3 | O=C(CN1CCN(c2ccc(C(=O)Nc3n[nH]c4ccc(Cc5cc(F)cc(F)c5)cc34)c(NC3CCOCC3)c2)CC1)NCCCCCCNc1cccc2c1C(=O)N(C1CCC(=O)NC1=O)C2=O (stereo not shown) [TR-147, N-(5-(3,5-Difluorobenzyl)-1H-indazol-3-yl)-4-(4-(2-((6-((2-(2,6-dioxopiperidin-3-yl)-1,3-dioxoisoindolin-4-yl)amino)hexyl)amino)-2-oxoethyl)piperazin-1-yl)-2-((tetrahydro-2H-pyran-4-yl)amino)benzamide] | 6.4
4 | O=C(CN1CCN(c2ccc(C(=O)Nc3n[nH]c4ccc(Cc5cc(F)cc(F)c5)cc34)c(NC3CCOCC3)c2)CC1)NCCCCCCCCNc1cccc2c1C(=O)N(C1CCC(=O)NC1=O)C2=O (stereo not shown) [TR-148, N-(5-(3,5-Difluorobenzyl)-1H-indazol-3-yl)-4-(4-(2-((8-((2-(2,6-dioxopiperidin-3-yl)-1,3-dioxoisoindolin-4-yl)amino)octyl)amino)-2-oxoethyl)piperazin-1-yl)-2-((tetrahydro-2H-pyran-4-yl)amino)benzamide] | 23.2
5 | O=C(CN1CCN(c2ccc(C(=O)Nc3n[nH]c4ccc(Cc5cc(F)cc(F)c5)cc34)c(NC3CCOCC3)c2)CC1)NCCCCCNc1cccc2c1C(=O)N(C1CCC(=O)NC1=O)C2=O (stereo not shown) [TR-149, N-(5-(3,5-Difluorobenzyl)-1H-indazol-3-yl)-4-(4-(2-((5-((2-(2,6-dioxopiperidin-3-yl)-1,3-dioxoisoindolin-4-yl)amino)pentyl)amino)-2-oxoethyl)piperazin-1-yl)-2-((tetrahydro-2H-pyran-4-yl)amino)benzamide] | 4.6
6 | O=C(CN1CCN(c2ccc(C(=O)Nc3n[nH]c4ccc(Cc5cc(F)cc(F)c5)cc34)c(NC3CCOCC3)c2)CC1)NCCOCCOCCOCCOCCNc1cccc2c1C(=O)N(C1CCC(=O)NC1=O)C2=O (stereo not shown) [TR-150, N-(5-(3,5-Difluorobenzyl)-1H-indazol-3-yl)-4-(4-(17-((2-(2,6-dioxopiperidin-3-yl)-1,3-dioxoisoindolin-4-yl)amino)-2-oxo-6,9,12,15-tetraoxa-3-azaheptadecyl)piperazin-1-yl)-2-((tetrahydro-2H-pyran-4-yl)amino)benzamide] | 16.6
7 | O=C(CN1CCN(c2ccc(C(=O)Nc3n[nH]c4ccc(Cc5cc(F)cc(F)c5)cc34)c(NC3CCOCC3)c2)CC1)NCCOCCNc1cccc2c1C(=O)N(C1CCC(=O)NC1=O)C2=O (stereo not shown) [TR-151, N-(5-(3,5-Difluorobenzyl)-1H-indazol-3-yl)-4-(4-(2-((2-(2-((2-(2,6-dioxopiperidin-3-yl)-1,3-dioxoisoindolin-4-yl)amino)ethoxy)ethyl)amino)-2-oxoethyl)piperazin-1-yl)-2-((tetrahydro-2H-pyran-4-yl)amino)benzamide] | 3.1
8 | O=C(CN1CCN(c2ccc(C(=O)Nc3n[nH]c4ccc(Cc5cc(F)cc(F)c5)cc34)c(NC3CCOCC3)c2)CC1)NCCCNc1cccc2c1C(=O)N(C1CCC(=O)NC1=O)C2=O (stereo not shown) [TR-152, N-(5-(3,5-Difluorobenzyl)-1H-indazol-3-yl)-4-(4-(2-((3-((2-(2,6-dioxopiperidin-3-yl)-1,3-dioxoisoindolin-4-yl)amino)propyl)amino)-2-oxoethyl)piperazin-1-yl)-2-((tetrahydro-2H-pyran-4-yl)amino)benzamide] | 3.1
9 | O=C(CN1CCN(c2ccc(C(=O)Nc3n[nH]c4ccc(Cc5cc(F)cc(F)c5)cc34)c(NC3CCOCC3)c2)CC1)NCCOCCOCCNc1cccc2c1C(=O)N(C1CCC(=O)NC1=O)C2=O (stereo not shown) [TR-153, N-(5-(3,5-Difluorobenzyl)-1H-indazol-3-yl)-4-(4-(2-((2-(2-(2-((2-(2,6-dioxopiperidin-3-yl)-1,3-dioxoisoindolin-4-yl)amino)ethoxy)ethoxy)ethyl)amino)-2-oxoethyl)piperazin-1-yl)-2-((tetrahydro-2H-pyran-4-yl)amino)benzamide] | 6.3
10 | O=C(CN1CCN(c2ccc(C(=O)Nc3n[nH]c4ccc(Cc5cc(F)cc(F)c5)cc34)c(NC3CCOCC3)c2)CC1)NCCCCCCCNc1cccc2c1C(=O)N(C1CCC(=O)NC1=O)C2=O (stereo not shown) [TR-154, N-(5-(3,5-Difluorobenzyl)-1H-indazol-3-yl)-4-(4-(2-((7-((2-(2,6-dioxopiperidin-3-yl)-1,3-dioxoisoindolin-4-yl)amino)heptyl)amino)-2-oxoethyl)piperazin-1-yl)-2-((tetrahydro-2H-pyran-4-yl)amino)benzamide] | 20.8
11 | O=C(CN1CCN(c2ccc(C(=O)Nc3n[nH]c4ccc(Cc5cc(F)cc(F)c5)cc34)c(NC3CCOCC3)c2)CC1)NCCCCNc1cccc2c1C(=O)N(C1CCC(=O)NC1=O)C2=O (stereo not shown) [TR-155, N-(5-(3,5-Difluorobenzyl)-1H-indazol-3-yl)-4-(4-(2-((4-((2-(2,6-dioxopiperidin-3-yl)-1,3-dioxoisoindolin-4-yl)amino)butyl)amino)-2-oxoethyl)piperazin-1-yl)-2-((tetrahydro-2H-pyran-4-yl)amino)benzamide] | 2.9
12 | O=C(CN1CCN(c2ccc(C(=O)Nc3n[nH]c4ccc(Cc5cc(F)cc(F)c5)cc34)c(NC3CCOCC3)c2)CC1)NCCCCNc1ccc2c(c1)C(=O)N(C1CCC(=O)NC1=O)C2=O (stereo not shown) [TR-156, N-(5-(3,5-Difluorobenzyl)-1H-indazol-3-yl)-4-(4-(2-((4-((2-(2,6-dioxopiperidin-3-yl)-1,3-dioxoisoindolin-5-yl)amino)butyl)amino)-2-oxoethyl)piperazin-1-yl)-2-((tetrahydro-2H-pyran-4-yl)amino)benzamide] | 3.3
13 | O=C(CN1CCN(c2ccc(C(=O)Nc3n[nH]c4ccc(Cc5cc(F)cc(F)c5)cc34)c(NC3CCOCC3)c2)CC1)NCCCCCCCNc1ccc2c(c1)C(=O)N(C1CCC(=O)NC1=O)C2=O (stereo not shown) [TR-157, N-(5-(3,5-Difluorobenzyl)-1H-indazol-3-yl)-4-(4-(2-((7-((2-(2,6-dioxopiperidin-3-yl)-1,3-dioxoisoindolin-5-yl)amino)heptyl)amino)-2-oxoethyl)piperazin-1-yl)-2-((tetrahydro-2H-pyran-4-yl)amino)benzamide] | 8.3
14 | O=C(CN1CCN(c2ccc(C(=O)Nc3n[nH]c4ccc(Cc5cc(F)cc(F)c5)cc34)c(NC3CCOCC3)c2)CC1)NCCCCCCCCNc1ccc2c(c1)C(=O)N(C1CCC(=O)NC1=O)C2=O (stereo not shown) [TR-159, N-(5-(3,5-Difluorobenzyl)-1H-indazol-3-yl)-4-(4-(2-((8-((2-(2,6-dioxopiperidin-3-yl)-1,3-dioxoisoindolin-5-yl)amino)octyl)amino)-2-oxoethyl)piperazin-1-yl)-2-((tetrahydro-2H-pyran-4-yl)amino)benzamide] | 30.4
15 | O=C(CN1CCN(c2ccc(C(=O)Nc3n[nH]c4ccc(Cc5cc(F)cc(F)c5)cc34)c(NC3CCOCC3)c2)CC1)NCCOCCOCCOCCOCCNc1ccc2c(c1)C(=O)N(C1CCC(=O)NC1=O)C2=O (stereo not shown) [TR-160, N-(5-(3,5-Difluorobenzyl)-1H-indazol-3-yl)-4-(4-(17-((2-(2,6-dioxopiperidin-3-yl)-1,3-dioxoisoindolin-5-yl)amino)-2-oxo-6,9,12,15-tetraoxa-3-azaheptadecyl)piperazin-1-yl)-2-((tetrahydro-2H-pyran-4-yl)amino)benzamide] | 4.8
16 | O=C(CN1CCN(c2ccc(C(=O)Nc3n[nH]c4ccc(Cc5cc(F)cc(F)c5)cc34)c(NC3CCOCC3)c2)CC1)NCCOCCNc1ccc2c(c1)C(=O)N(C1CCC(=O)NC1=O)C2=O (stereo not shown) [TR-161, N-(5-(3,5-Difluorobenzyl)-1H-indazol-3-yl)-4-(4-(2-((2-(2-((2-(2,6-dioxopiperidin-3-yl)-1,3-dioxoisoindolin-5-yl)amino)ethoxy)ethyl)amino)-2-oxoethyl)piperazin-1-yl)-2-((tetrahydro-2H-pyran-4-yl)amino)benzamide] | 4.7
17 | O=C(CN1CCN(c2ccc(C(=O)Nc3n[nH]c4ccc(Cc5cc(F)cc(F)c5)cc34)c(NC3CCOCC3)c2)CC1)NCCOCCOCCNc1ccc2c(c1)C(=O)N(C1CCC(=O)NC1=O)C2=O (stereo not shown) [TR-162, N-(5-(3,5-Difluorobenzyl)-1H-indazol-3-yl)-4-(4-(2-((2-(2-(2-((2-(2,6-dioxopiperidin-3-yl)-1,3-dioxoisoindolin-5-yl)amino)ethoxy)ethoxy)ethyl)amino)-2-oxoethyl)piperazin-1-yl)-2-((tetrahydro-2H-pyran-4-yl)amino)benzamide] | 4.1
18 | O=C(CN1CCN(c2ccc(C(=O)Nc3n[nH]c4ccc(Cc5cc(F)cc(F)c5)cc34)c(NC3CCOCC3)c2)CC1)NCCOCCOCCOCCNc1ccc2c(c1)C(=O)N(C1CCC(=O)NC1=O)C2=O (stereo not shown) [TR-163, N-(5-(3,5-Difluorobenzyl)-1H-indazol-3-yl)-4-(4-(14-((2-(2,6-dioxopiperidin-3-yl)-1,3-dioxoisoindolin-5-yl)amino)-2-oxo-6,9,12-trioxa-3-azatetradecyl)piperazin-1-yl)-2-((tetrahydro-2H-pyran-4-yl)amino)benzamide] | 6.3
19 | O=C(CN1CCN(c2ccc(C(=O)Nc3n[nH]c4ccc(Cc5cc(F)cc(F)c5)cc34)c(NC3CCOCC3)c2)CC1)NCCCCCNc1ccc2c(c1)C(=O)N(C1CCC(=O)NC1=O)C2=O (stereo not shown) [TR-164, N-(5-(3,5-Difluorobenzyl)-1H-indazol-3-yl)-4-(4-(2-((5-((2-(2,6-dioxopiperidin-3-yl)-1,3-dioxoisoindolin-5-yl)amino)pentyl)amino)-2-oxoethyl)piperazin-1-yl)-2-((tetrahydro-2H-pyran-4-yl)amino)benzamide] | 7.8
